Consider six compounds from US10532979B2, “Phenyldifluoromethyl-substituted prolinamide compound” (ASTELLAS PHARMA INC., priority 2017, dated 2020).

pIC50: −log10 of the molar value. Where a name gives a salt, the structure may show the parent alone.

One data set concerns the target T1, human cathepsin S (Homo sapiens, UniProt P25774).
T1 construct: purchased R&D 1183-CY-010
Briefly: Measurement of in vitro human cathepsin S inhibitory activity. The class given is biochemical. The note with it: substrate VVR-AMC 40 μM, pH 4.5, 37° C.; read-out: Dat1: IC50 value of human cathepsin S inhibitory activity. The protocol:
Test Example 1: Measurement of In Vitro Human Cathepsin S Inhibitory Activity
To a 96-well plate, 5 μL of human cathepsin S enzyme (R&D 1183-CY-010) was added so as to be 20 ng/well. Next, with assay buffer (50 mM sodium acetate, 250 mM sodium chloride, and 5 mM dithiothreitol (DTT), pH=4.5), a test compound (10 mM DMSO solution) was diluted 10-fold dilution series with 5 steps so that a final concentration becomes 0.1 nM to 1 μM or diluted 3-fold dilution series with 7 steps so that a final concentration becomes 0.01 nM to 10 nM, and 10 μL thereof was added to the well (final DMSO concentration was 0.1%), followed by addition of 25 μL of synthetic substrate VVR-AMC (Peptide Institute 3211-V) so that a final concentration becomes 40 μM, and thereby an enzymatic reaction was initiated. The fluorescence intensity (excitation wavelength: 380 nm, fluorescence wavelength: 460 nm) was measured at 37° C. for 5 to 10 minutes from the start of the reaction using a spectrofluorophotometer (SPECTRAMAX GEMINI, Molecular Devices), and a reaction rate when linearity was recognized (5 minutes) was obtained for each concentration of the test compound. An inhibition rate at each concentration was defined by suppressing a reaction rate at the time of non-addition of an enzyme without adding the test compound and a reaction rate at the time of addition of an enzyme without adding the test compound by 100% inhibition and 0% inhibition, respectively, and therefore an IC50 value was calculated by a sigmoid Emax nonlinear regression method. In the table, Ex represents Example compound No., and Dat1 represents the IC50 value (nM) of human cathepsin S inhibitory activity.

For data set [1], the system named is MHC class II expression in B cells. Nature of the data set: Inhibitory effect on in vitro MHC class II expression using mouse splenocytes (LPS-stimulated, B220 positive B cells). It counts as cell-based. The note with it: B-cell, C57BL/6J mouse splenocytes, LPS 2 μg/mL, 48 hours, YAe antibody, read-out: Dat2: IC50 value, inhibition of MHC class II expression. From the text:
Test Example 2: Evaluation of Inhibitory Effect on In Vitro MHC Class II Expression Using Mouse Splenocytes (Cell Evaluation System)
In antigen-presenting cells, inhibition of cathepsin S suppresses expression of MHC class II molecules. As a result, suppression of antigen presentation to CD4-positive T cells causes a deterioration in the immune response to foreign antigens. In regard to an increase in MHC class II expression in B cells, the inhibitory effect of the compound of the formula (I) was examined.
Splenocytes collected from male C57BL/6J mice (Charles River Laboratories Japan, Inc.) were seeded in a 96-well plate by 1×10^5 cells/well. With RPMI 1640 medium (containing 10% fetal bovine serum (FCS), 5×10^−5 M 2-mercaptoethanol, 50 IU/mL penicillin, and 50 μg/mL streptomycin), 10 mM DMSO solution of the test compound was diluted 5-fold dilution series with 9 steps so that a final concentration becomes […] to 10 μM, or diluted 5-fold dilution series with 12 steps so that a final concentration becomes 0.205 pM to 10 μM (final DMSO concentration is 0.1%), and added. At the same time, LPS (Sigma L4005) was added to the well so that the final concentration becomes 2 μg/mL, and the cells were cultured at 37° C. under 5% CO2 for 48 hours. After culturing, the cells were stained with biotin-labeled YAe antibody (EBIOSCIENCE 13-5741-85) at 4° C. for 20 minutes, and washed. The cells were further stained with FITC fluorochrome labeled anti-mouse B220 antibody (BD BIOSCIENCES 553088) and PE fluorochrome labeled streptavidin (BD BIOSCIENCES 554061) for 20 minutes at 4° C. Therefore, an expression level (fluorescence intensity of YAe-biotin/streptavidin-PE) of MHC class II bound to the Ea peptide in B220 positive B cells was measured by using a flow cytometry system (Guava EasyCyte Plus System, Millipore). An inhibition rate at each concentration was defined by suppressing a value at the time of non-stimulation of LPS without addition of the test compound and a value at the time of stimulation of LPS without addition of the test compound by 100% inhibition and 0% inhibition, respectively, and therefore an IC50 value was calculated by the sigmoid Emax nonlinear regression method. In the table, Ex represents Example compound No., and Dat2 represents the IC50 value (nM).

The subject of data set [2] is NZB/W F1 mice (SLE-like disease). Nature of the data set: Inhibitory effect on SLE-like disease onset in spontaneous onset model using NZB/W F1 mice. The note with it: NZB/W F1 female mice. The class given is in vivo, mouse. From the text: Test Example 4: Evaluation of Inhibitory Effect on SLE-Like Disease Onset in Spontaneous Onset Model Using NZB/W F1 Mice
NZB/W F1 mice (Japan SLC, Inc.) is used as a model of SLE spontaneously developing a disease condition close to humans (“JAMA”, 1966, Vol. 195, p. 145; “Advances in Immunology”, 1985, Vol. 37, p. 269-390; “Journal of Biomedicine and Biotechnology”, 2011, Vol. 2011, 271694).
NZB/W F1 female mice were divided into groups according to urine protein values (creatinine corrected value), anti-double stranded DNA (dsDNA) antibody value (IgG) in plasma, an expression level of MHC class II in B cells of peripheral blood, and body weight at age of 19 weeks. At this time, individuals with urine protein values (creatinine corrected value) of 3 or more were excluded. From age of 20 weeks, the test compound was orally administered twice a day, and then urine collection and blood collection were performed over time. The change in urine protein value and anti-dsDNA antibody value over time were evaluated.
In the above test, anti-dsDNA IgG antibody value in plasma generated in association with SLE-like disease was measured by ELISA method (ALPHA DIAGNOSTIC 5120). In geometric mean values of the antibody value at age of 28 weeks and age of 32 weeks of each individual, a geometric mean value of 10 vehicle-administered subjects was 216662 U/mL, whereas a geometric mean value of 10 subjects administered with 1 mg/kg b.i.d. of the compound of Example 2 was 26827 U/mL, which is a low value having a significant difference (P value=0.0009, Dunnett's multiple comparison). In addition, urine protein values (creatinine corrected value) at age of 40 weeks were measured. A geometric mean value of the 10 vehicle-administered subjects was 13.0, whereas a geometric mean value of the 10 subjects administered with 1 mg/kg b.i.d. of the compound of Example 2 was 0.7, which is a low value having a significant difference (P value=0.0005, Dunnett's multiple comparison).

Data set [3] relates to MHC class II expression in B cells of peripheral blood. Nature of the data set: Ex vivo MHC class II expression inhibitory effect using mouse peripheral blood after oral administration. The class given is in vivo. The note with it: male C57BL/6J mice, 0.3 mg/kg oral, peripheral blood after 6 hours, LPS 100 μg/mL 15 hours. The protocol: Test Example 3: Evaluation of Ex Vivo MHC Class II Expression Inhibitory Effect Using Mouse Peripheral Blood
The expression inhibitory effect of MHC class II molecules was evaluated in an ex vivo system.
The test compound was orally administered to male C57BL/6J mice (Charles River Laboratories Japan, Inc.), and an inhibition effect with respect to an increase in the expression of MHC class II in B cells of peripheral blood after oral administration was examined. That is, 10 mL/kg of the test compound dissolved in a vehicle [30% propylene glycol solvent {propylene glycol:hydrogenated castor oil (HCO40): Tween 80=4:2:1}/HCl (2 equivalents to the test compound)/water] was orally administered to male C57BL/6J mice (dose: 0.3 mg/kg, 4 subjects per group), and peripheral blood was recovered after 6 hours. To 90 μL of the peripheral blood, 10 μL of PBS or 10 μL (final concentration 100 μg/mL) of LPS (Sigma L4005) was added, and the culturing was carried out at 37° C. under 5% CO2 for 15 hours. […] After washing, using the flow cytometry system (FACSCanto II, BD BIOSCIENCES), an expression level of MHC class II on a surface of B220 positive B cells was measured with an average fluorescence intensity of FITC (hereinafter referred to as MFI) as an index. […]

T1 sequence (P25774 115-331): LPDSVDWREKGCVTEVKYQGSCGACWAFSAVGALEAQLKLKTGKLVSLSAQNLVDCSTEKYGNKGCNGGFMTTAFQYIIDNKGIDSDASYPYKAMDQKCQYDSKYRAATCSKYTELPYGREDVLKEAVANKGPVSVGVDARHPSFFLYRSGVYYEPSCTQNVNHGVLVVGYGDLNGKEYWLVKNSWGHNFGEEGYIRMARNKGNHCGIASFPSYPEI

The pIC50 is −log10 of the IC50, conventionally taken in molar units. `CN1CCN(Cc2ccc(C(F)(F)[C@@H]3C[C@@H](C(=O)NC4(C#N)CC4)N(C(=O)C4(C(F)(F)F)CC4)C3)c(C(F)(F)F)c2)CC1` [Example 4, (4R)—N-(1-cyanocyclopropyl)-4-(difluoro{4-[(4-methylpiperazin-1-yl)methyl]-2-(trifluoromethyl)phenyl}methyl)-1-{[1-(trifluoromethyl)cyclopropyl]carbonyl}-L-prolinamide]: the pIC50 at human cathepsin S was 9.00; in data set [1], 9.21.
Usually melting point stands for the temperature of the solid-liquid transition. On to `CN1CCN(Cc2ccc(C(F)(F)[C@@H]3C[C@@H](C(=O)NC4(C#N)CC4)N(C(=O)C4(C)CC4)C3)c(C(F)(F)F)c2)CC1` (as salt: succinate) [Example 18, (4R)—N-(1-cyanocyclopropyl)-4-(difluoro{4-[(4-methylpiperazin-1-yl)methyl]-2-(trifluoromethyl)phenyl}methyl)-1-[(1-methylcyclopropyl)carbonyl]-L-prolinamide], for which the melting point was 134.3 °C.
With `CN1CCN(Cc2ccc(C(F)(F)[C@@H]3C[C@@H](C(=O)NC4(C#N)CC4)N(C(=O)C4(C)CC4)C3)c(C(F)(F)F)c2)CC1` [Example 2, (4R)—N-(1-cyanocyclopropyl)-4-(difluoro{4-[(4-methylpiperazin-1-yl)methyl]-2-(trifluoromethyl)phenyl}methyl)-1-[(1-methylcyclopropyl)carbonyl]-L-prolinamide dihydrochloride], the pIC50 at human cathepsin S is 9.09; in data set [1], 9.19. In addition, the “effect on SLE-like disease onset” value in data set [2] (1 mg/kg b.i.d. oral) is “has the effect of suppressing the SLE-like disease onset”. Moreover, the “anti-dsDNA IgG antibody value in plasma, geometric mean value” in data set [2] (1 mg/kg b.i.d. oral from age of 20 weeks, age of 28 weeks and 32 weeks, 10 subjects, vehicle 216662 U/mL, P value=0.0009) is given as 26827 U/mL. The “urine protein value (creatinine corrected value), geometric mean value” in data set [2] (1 mg/kg b.i.d. oral, age of 40 weeks, 10 subjects, vehicle 13.0, P value=0.0005) came to 0.7.
Turning to `CCN1CCN(Cc2ccc(C(F)(F)[C@@H]3C[C@@H](C(=O)NC4(C#N)CC4)N(C(=O)C4(C)CC4)C3)c(C(F)(F)F)c2)CC1` [Example 14], the pIC50 on human cathepsin S is 9.37; in data set [1], 9.22.
As to `CN1CCN(Cc2ccc(C(F)(F)C3C[C@@H](C(=O)NC4(C#N)CC4)N(C(=O)C4(C)CC4)C3)c(C(F)(F)F)c2)CC1` (mixture of isomers) [Example 8, N-(1-cyanocyclopropyl)-4-(difluoro{4-[(4-methylpiperazin-1-yl)methyl]-2-(trifluoromethyl)phenyl}methyl)-1-[(1-methylcyclopropyl)carbonyl]-L-prolinamide dihydrochloride], the pIC50 at human cathepsin S is 9.06; in data set [1], 9.23. The “inhibition rate of ΔMFI (increase in expression of MHC class II on B220 positive B cells)” value in data set [3] is listed as 41%.
With `CCN1CCN(Cc2ccc(C(F)(F)[C@@H]3C[C@@H](C(=O)NC4(C#N)CC4)N(C(=O)C4(C(F)(F)F)CC4)C3)c(C(F)(F)F)c2)CC1` [Example 13], the results for the pIC50 (at human cathepsin S; in data set [1]) were 9.00 and 9.43, respectively.
